This note sets out measurements from paper PMC9892044, “Synthesis of new diphenyl urea-clubbed imine analogs and its Implications in diabetic management through in vitro and in silico approaches” (Scientific Reports, 2023).

What is called melting point is the temperature, or range, at which the solid turns liquid. In turn, `CCOc1cccc(/C=N/c2ccccc2NC(=O)Nc2cccc(Cl)c2)c1O` [Compound 3a, (E)-1-(3-chlorophenyl)-3-(2-((3-ethoxy-2-hydroxybenzylidene)amino)phenyl) urea] gave a melting point of 218 to 220 °C.
For `CCOc1cccc(/C=N/c2ccccc2NC(=O)Nc2ccc(F)cc2)c1O` [Compound 3b, (E)-1-(2-((3-ethoxy-2-hydroxybenzylidene)amino)phenyl)-3-(4-fluorophenyl) urea] the value was 217 to 219 °C; for `CCOc1cccc(/C=N/c2ccccc2NC(=O)Nc2ccc3ccccc3c2)c1O` [Compound 3d, (E)-1-(2-((3-ethoxy-2-hydroxybenzylidene)amino)phenyl)-3-(naphthalen-2-yl) urea], 228 to 230 °C; for `CCOc1cccc(/C=N/c2ccccc2NC(=O)Nc2ccc(OC)cc2)c1O` [Compound 3e, (E)-1-(2-((3-ethoxy-2-hydroxybenzylidene)amino)phenyl)-3-(4-methoxyphenyl) urea], 204 to 206 °C.
For `CCOc1cccc(/C=N/c2ccccc2NC(=O)Nc2ccc(Cl)cc2)c1O` [Compound 3f, (E)-1-(4-chlorophenyl)-3-(2-((3-ethoxy-2-hydroxybenzylidene)amino)phenyl) urea] the value was 218 to 220 °C.
The result for `CCOc1cccc(/C=N/c2ccccc2NC(=O)Nc2ccccc2C)c1O` [Compound 3g, (E)-1-(2-((3-ethoxy-2-hydroxybenzylidene)amino)phenyl)-3-(o-tolyl) urea] reads 216 to 218 °C; that for `CCOc1cccc(/C=N/c2ccccc2NC(=O)Nc2cccc(C)c2)c1O` [Compound 3h, (E)-1-(2-((3-ethoxy-2-hydroxybenzylidene)amino)phenyl)-3-(m-tolyl) urea], 203 to 205 °C.
As for `CCOc1cccc(/C=N/c2ccccc2NC(=O)Nc2ccc(C)cc2)c1O` [Compound 3i, (E)-1-(2-((3-ethoxy-2-hydroxybenzylidene)amino)phenyl)-3-(p-tolyl)urea], the melting point lay in the range of 210 to 212 °C.
`COc1cccc(/C=N/c2ccccc2NC(=O)Nc2cccc(Cl)c2)c1O` [Compound 3l, (E)-1-(3-chlorophenyl)-3-(2-((2-hydroxy-3-methoxybenzylidene)amino)phenyl) urea]: the melting point is 208 to 210 °C.
The compound `COc1cccc(/C=N/c2ccccc2NC(=O)Nc2cccc(F)c2)c1O` [Compound 3n, (E)-1-(3-fluorophenyl)-3-(2-((2-hydroxy-3-methoxybenzylidene)amino)phenyl) urea] gave a melting point of 200 to 201 °C.
For `COc1cccc(/C=N/c2ccccc2NC(=O)Nc2ccc3ccccc3c2)c1O` [Compound 3o, (E)-1-(2-((2-hydroxy-3-methoxybenzylidene)amino)phenyl)-3-(naphthalen-2-yl) urea] the value was 214 to 216 °C.
In turn, `COc1cccc(/C=N/c2ccccc2NC(=O)Nc2ccc(Cl)cc2)c1O` [Compound 3q, (E)-1-(4-chlorophenyl)-3-(2-((2-hydroxy-3-methoxybenzylidene)amino)phenyl) urea] yielded a melting point of 218 to 220 °C.
On to `COc1cccc(/C=N/c2ccccc2NC(=O)Nc2cccc(C)c2)c1O` [Compound 3s, (E)-1-(2-((2-hydroxy-3-methoxybenzylidene)amino)phenyl)-3-(m-tolyl) urea], for which the melting point was in the range of 201 to 203 °C.
The result for `COc1cccc(/C=N/c2ccccc2NC(=O)Nc2ccccc2)c1O` [Compound 3u, (E)-1-(2-((2-hydroxy-3-methoxybenzylidene)amino)phenyl)-3-phenylurea] reads 188 to 190 °C.
Regarding `COc1cccc(/C=N/c2ccccc2NC(=O)Nc2ccc(C(C)=O)cc2)c1O` [Compound 3v, (E)-1-(4-acetylphenyl)-3-(2-((2-hydroxy-3-methoxybenzylidene)amino)phenyl) urea], the melting point is 200 to 212 °C.
As for `COc1cc(/C=N/c2ccccc2NC(=O)Nc2ccc(Cl)cc2)ccc1O` [Compound 3w, (E)-1-(4-chlorophenyl)-3-(2-((4-hydroxy-3-methoxybenzylidene)amino)phenyl) urea], the melting point lay in the range of 219 to 221 °C.
The result for `COc1cc(/C=N/c2ccccc2NC(=O)Nc2ccccc2C)ccc1O` [Compound 3x, (E)-1-(2-((4-hydroxy-3-methoxybenzylidene)amino)phenyl)-3-(o-tolyl) urea] reads 200 to 202 °C.
